“And” between values parts separate entries of the source, which are not always exact repeats. Equal entries are not always repeated. Where two headings read alike, the source gives them in different places.
Key:
Test in all cases: biochemical
[1] = target: TbTryS (Trypanosoma brucei trypanothione synthetase) (Trypanosoma brucei brucei, UniProt Q8IEX1); settings: for activity at 30 µM: read-out: TbTryS Activity ± 2σn-1 (%)
[2] = target: TcTryS (Trypanosoma cruzi trypanothione synthetase) (Trypanosoma cruzi, UniProt Q9GT49); format: biochemical; settings: for remaining activity at 30 µM: read-out: TcTryS Activity ± 2σn-1 (%); for inhibition at 30 µM: read-out: % TcTryS inhibition ± 2σn-1
Sequence of TcTryS (Trypanosoma cruzi trypanothione synthetase) (Q9GT49 whole entry): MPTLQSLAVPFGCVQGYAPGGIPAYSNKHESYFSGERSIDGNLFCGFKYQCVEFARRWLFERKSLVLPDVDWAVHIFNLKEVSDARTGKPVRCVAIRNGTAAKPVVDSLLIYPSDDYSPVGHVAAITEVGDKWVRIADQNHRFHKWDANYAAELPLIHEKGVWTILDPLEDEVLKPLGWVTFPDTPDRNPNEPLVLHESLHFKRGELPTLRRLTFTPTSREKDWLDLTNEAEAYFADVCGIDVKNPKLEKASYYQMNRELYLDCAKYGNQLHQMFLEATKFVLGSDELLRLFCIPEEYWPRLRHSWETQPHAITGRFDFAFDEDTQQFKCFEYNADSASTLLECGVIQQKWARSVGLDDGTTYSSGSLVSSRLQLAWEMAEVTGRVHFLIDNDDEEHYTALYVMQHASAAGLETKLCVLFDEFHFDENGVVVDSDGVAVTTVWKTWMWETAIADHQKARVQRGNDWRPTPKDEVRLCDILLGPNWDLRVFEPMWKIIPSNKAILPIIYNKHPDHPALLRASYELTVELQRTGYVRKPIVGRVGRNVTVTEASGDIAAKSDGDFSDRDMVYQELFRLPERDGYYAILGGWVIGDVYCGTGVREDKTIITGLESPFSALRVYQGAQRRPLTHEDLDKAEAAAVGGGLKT

[3] = target: LiTryS (Leishmania infantum trypanothione synthetase) (Leishmania infantum, UniProt A4I2Z3); format: biochemical; settings: for activity at 30 µM: read-out: LiTryS Activity ± 2σn-1 (%)
Sequence of LiTryS (Leishmania infantum trypanothione synthetase) (A4I2Z3 1-652): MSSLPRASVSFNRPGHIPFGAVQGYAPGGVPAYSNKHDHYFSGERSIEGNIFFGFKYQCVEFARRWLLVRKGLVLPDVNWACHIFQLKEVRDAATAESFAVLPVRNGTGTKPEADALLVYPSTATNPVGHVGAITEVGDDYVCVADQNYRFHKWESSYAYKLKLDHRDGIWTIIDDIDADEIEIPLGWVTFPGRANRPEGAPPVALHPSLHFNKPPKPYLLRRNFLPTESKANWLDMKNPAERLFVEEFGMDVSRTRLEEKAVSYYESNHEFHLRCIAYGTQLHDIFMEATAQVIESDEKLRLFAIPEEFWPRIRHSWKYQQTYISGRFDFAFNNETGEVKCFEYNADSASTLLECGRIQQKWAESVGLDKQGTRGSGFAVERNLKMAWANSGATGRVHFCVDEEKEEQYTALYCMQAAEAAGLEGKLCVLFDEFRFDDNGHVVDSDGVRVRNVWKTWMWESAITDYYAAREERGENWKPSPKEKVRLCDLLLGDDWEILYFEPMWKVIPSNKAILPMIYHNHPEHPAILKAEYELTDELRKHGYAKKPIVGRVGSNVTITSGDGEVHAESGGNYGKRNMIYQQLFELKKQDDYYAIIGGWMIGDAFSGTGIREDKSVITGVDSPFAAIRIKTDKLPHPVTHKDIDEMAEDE

Sequence of TbTryS (Trypanosoma brucei trypanothione synthetase) (Q8IEX1 1-627): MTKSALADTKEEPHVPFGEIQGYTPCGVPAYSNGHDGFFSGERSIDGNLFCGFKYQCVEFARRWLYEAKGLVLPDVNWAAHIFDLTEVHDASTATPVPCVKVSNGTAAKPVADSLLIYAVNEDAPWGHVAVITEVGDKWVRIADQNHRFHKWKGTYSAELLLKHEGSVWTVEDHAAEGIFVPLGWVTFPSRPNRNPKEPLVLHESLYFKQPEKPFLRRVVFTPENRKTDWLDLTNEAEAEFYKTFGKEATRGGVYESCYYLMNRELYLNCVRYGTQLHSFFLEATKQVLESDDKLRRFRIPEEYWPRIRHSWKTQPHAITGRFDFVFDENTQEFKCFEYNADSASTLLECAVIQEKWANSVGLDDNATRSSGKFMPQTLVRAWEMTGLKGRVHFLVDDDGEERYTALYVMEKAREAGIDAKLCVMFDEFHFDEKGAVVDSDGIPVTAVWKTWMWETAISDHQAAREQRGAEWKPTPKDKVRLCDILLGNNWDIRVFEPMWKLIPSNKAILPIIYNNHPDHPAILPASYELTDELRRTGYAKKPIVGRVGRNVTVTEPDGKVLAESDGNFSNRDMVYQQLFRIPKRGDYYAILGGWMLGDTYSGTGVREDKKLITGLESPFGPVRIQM

Structure (SMILES) | TcTryS Activity ± 2σn-1 (%) [2] | TbTryS Activity ± 2σn-1 (%) [1] | LiTryS Activity ± 2σn-1 (%) [3] | further results
COc1ccc(C2C(C(=O)c3ccc4c(c3)OCCO4)=C(O)C(=O)N2c2nc3ccc(OC)cc3s2)cc1 (stereo not shown) [ADPKN160] | 97.6 ± 3.7; 4% | – | – | TbTryS Activity ± 2σn-1 (%) ([1]; 30 µM): 116.4 ± 4.2; 4 (0.87) %; activity at 30 µM [1]: 116%; remaining activity at 30 µM [2]: 97.6 ± 3.7%; activity at 30 µM [3]: 77.9 ± 3.6%
O=C(C1=C(O)C(=O)N(c2nc3ccc(Cl)cc3s2)C1c1ccccc1)c1ccc2c(c1)OCCO2 (stereo not shown) [ADMRC159] | 97.2 ± 7.8; 2% | 91.7 ± 6.5; 3% | 64.1 ± 2.7; 4% | % LiTryS inhibition ± 2σn-1 [3]: ~35%
COc1cc(C2C(C(=O)c3ccc4c(c3)OCCO4)=C(O)C(=O)N2c2nc3ccc(C)cc3s2)ccc1O (stereo not shown) [ADMRC152] | 103.1 ± 6.2; 3% | 115.4 ± 4.3; 3% | 92.5 ± 6.6; 4% | –
CCCCn1c(=O)[nH]c(=O)c2c1nc(CSc1cccc(C(F)(F)F)c1)n2C [Compound C3, reference compound] | 91.1 ± 4.6; 4% | 92.7 ± 3.6; 3% | 84.5 ± 3.3; 3% | –
Cn1c(=O)c2c(nc(N/N=C\c3ccc(O)cc3O)n2CC(O)COc2ccccc2)n(C)c1=O (stereo not shown) [TC227, (Z)-8-(2-(2,4-dihydroxybenzylidene)hydrazinyl)-7-(2-hydroxy-3-phenoxypropyl)-1,3-dimethyl-1H-purine-2,6(3H,7H)-dione] | 161.6 ± 5.3; 3 (0.98) % | – | – | activity at 30 µM [1]: 102 ± 2.3%; % TryS activity (TcTryS) [2]: 1.1 ± 3.1; 4% and 0.2 ± 3.1; 4% and 1.1 ± 2.1; 4%; remaining activity at 30 µM [2]: 162%; activity at 30 µM [3]: 88.5 ± 7.1%
CC(C)(C)NC(=O)Nc1ncc2cc(-c3ccc4c(c3)OCO4)c(NC(=O)NC(C)(C)C)nc2n1 [ZEA40] | – | – | – | inhibition at 30 µM ([1]; read-out: % TbTryS inhibition ± 2σn-1): 25.3 ± 5.2%; activity at 30 µM [1]: 74.7%; inhibition at 30 µM [2]: 50%; inhibition at 30 µM ([3]; read-out: % LiTryS inhibition ± 2σn-1): 15.3 ± 8.3%; activity at 30 µM [3]: 84.7%
O=C(C1=C(O)C(=O)N(c2nc3ccc(Cl)cc3s2)C1c1ccc(F)cc1)c1ccc2c(c1)OCCO2 (stereo not shown) [ADMRC150] | 81.2 ± 4.1; 4% | 101.4 ± 8.2; 12% | 63.0 ± 6.8; 7% | % LiTryS inhibition ± 2σn-1 [3]: ~35%
COc1ccc2c(c1)no[n+]2[O-] [Compound J14] | 77.2 ± 4.4; 4% | 93.1 ± 5.6; 4% | 96.1 ± 7.3; 4% | –
COc1ccc(C2C(C(=O)c3ccc4c(c3)OCCO4)=C(O)C(=O)N2c2nc3ccccc3s2)cc1 (stereo not shown) [ADPKN165] | 107.1 ± 4.5; 4% | – | – | activity at 30 µM [1]: 166%; remaining activity at 30 µM [2]: 107 ± 4.5%; activity at 30 µM [3]: 83.5 ± 6%
Clc1ccc(CNCCCCCCCCCCNCc2ccc(Cl)cc2)cc1 [EAP1-53] | 73.3 ± 2.3; 4% | 63.9 ± 4.1; 4 (1.34) % | 69 ± 5.7; 4 (1.305) % | –
Cc1ccc2nc(N3C(=O)C(O)=C(C(=O)c4ccc5c(c4)OCCO5)C3c3ccccc3)sc2c1 (stereo not shown) [ADMRC151] | 97.0 ± 5.2; 3% | 107.7 ± 6.1; 3% | 83.1 ± 2.3; 3% | –
COc1ccc(C2C(C(=O)c3ccc4c(c3)OCCO4)=C(O)C(=O)N2c2nc3ccc(Cl)cc3s2)cc1OC (stereo not shown) [ADMRC157] | 109.2 ± 1.5; 4% | 102.1 ± 0.01; 3% | 89.1 ± 2.8; 4% | –
Fc1ccc(CNCCCCCCCCCCNCc2ccc(F)cc2)cc1 [EAP1-51] | 87.5 ± 4.6; 4% | 81.0 ± 7.5; 3% | 80.6 ± 2.7; 4% | –
COc1cc(C2C(C(=O)c3ccc4c(c3)OCCO4)=C(O)C(=O)N2c2nc3ccc(Cl)cc3s2)ccc1O (stereo not shown) [ADMRC158] | 97.4 ± 6.1; 4% | – | – | TbTryS Activity ± 2σn-1 (%) ([1]; 30 µM): 119.1 ± 4.6; 5 (0.88) %; activity at 30 µM [1]: 119%; remaining activity at 30 µM [2]: 97.4 ± 6.1%; activity at 30 µM [3]: 85.3 ± 8.7%
c1ccc(COc2ccc(CNCCCCCCCCCCNCc3ccc(OCc4ccccc4)cc3)cc2)cc1 [APC1-117] | 90.8 ± 12.3; 2% | 71.4 ± 6.1; 4% | 69.8 ± 6.5; 3% | –
Cc1cc2no[n+]([O-])c2cc1C [Compound J11] | 86.4 ± 2.9; 4% | 88.8 ± 5.8; 4% | 103.6 ± 10.4; 3% | –
[O-][n+]1onc2cc(Cl)c(Cl)cc21 [Compound J13] | 84.9 ± 4.4; 3% | 88.9 ± 2.7; 3% | 102.2 ± 7.8; 3% | –
[O-][n+]1onc2cc(Cl)ccc21 [Compound J12] | 63.7 ± 0.5; 4% | 92.7 ± 2.7; 3% | 93.8 ± 3.9; 4% | –
COc1ccc(C2C(C(=O)c3ccc(OC)c(OC)c3)=C(O)C(=O)N2c2nc3ccc(Cl)cc3s2)cc1 (stereo not shown) [ADPKN163] | 113.6 ± 3.4; 4% | 88.0 ± 5.0; 4% | 82.3 ± 7.7; 3% | –
COc1cc(CNCCCNCc2ccc(OCc3ccccc3)c(OC)c2)ccc1OCc1ccccc1 [APC1-79] | 63.3 ± 2.7; 2% | 66.0 ± 2.9; 4% | 72.1 ± 3.4; 4 (1.27) % | –
CN1CCN(CCCN2c3ccccc3Sc3ccc(Cl)cc32)CC1 [prochlorperazine, reference compound] | – | – | – | inhibition of TcTryS [2]: none of the TryS was inhibited; reduction of TcTryS activity [2]: 34%
Cc1ccc2nc(N3C(=O)C(O)=C(C(=O)c4ccc5c(c4)OCCO5)C3c3ccc(F)cc3)sc2c1 (stereo not shown) [ADMRC154] | 93.9 ± 2.1; 3% | 110.3 ± 8.7 ; 12% | 64.7 ± 3.7; 4% | % LiTryS inhibition ± 2σn-1 [3]: ~35%
COc1ccc(CNCCCCCCCCCCCCNCc2ccc(OC)cc2)cc1 [EAP1-11] | 82.8 ± 7.6; 3% | 77.2 ± 4.5; 5 (1.30) % | 62.0 ± 7.8; 4% | –
c1ccc(COc2ccc(CNCCCCCCCCNCc3ccc(OCc4ccccc4)cc3)cc2)cc1 [APC1-109] | 66.2 ± 10.9; 2% | – | 72.2 ± 6.2; 4% | –
c1ccc(COc2ccc(CNCCCCCCNCc3ccc(OCc4ccccc4)cc3)cc2)cc1 [APC1-99] | – | – | – | IC50 [1]: ~30 µM; inhibition at 30 µM [2]: 33.4 ± 4.1%; remaining activity at 30 µM [2]: 66.6%
